Test results published in US8765433B2, “Alcohol dehydrogenases (ADH) useful for fermentive production of lower alkyl alcohols” (priority 2009, dated 2014).

Experiments:
Experiment in all cases: isobutyraldehyde reduction kinetics (A340, initial rates)
Assay type in all cases: biochemical
[1] = biological target: T1, Geobacillus sp. WCH70 ADH (GbADH), SEQ ID NO: 37 (Parageobacillus toebii, UniProt A0A6G9J337)
T1 construct: 346 aa, begins […]) in pBADHisA, N-terminal His tag, expressed in E. coli, purified
Text: (§1) This example describes preparation of ADH-gene constructs for over-expression/purification and measurement of enzyme activities using a time-course assay. Horse-liver ADH (HLADH; A-6128) was purchased from Sigma. Achromobacter xylosoxidans SadB (SadB), Saccharomyces cerevisiae ADH6 (ScADH6) and ADH7 (ScADH7), Entamoeba histolytica ADH1 (EhADH1), Bos Taurus Aldehyde Reductase (BtARD), Beijerinckia indica subsp. Indica ATCC 9039 (BiADH), Clostridium beijerinckii ADH (CbADH), Rana perezi ADH8 (RpADH8), Rattus norvegicus ADH1 (RnADH1), Thermus sp. ATN1 ADH (TADH), Phenylobacterium zucineum HLK1 ADH (PzADH), Methylocella silvestris BL2 ADH (MsADH), Acinetobacter baumannii AYE ADH (AbADH), Geobacillus sp. WCH70 ADH (GbADH), Vanderwaltozyma polyspora DSM 70294 ADH (VpADH), Mucor circinelloides ADH (McADH), and Rhodococcus erythropolis PR4ADH (ReADH) were the candidates for which subclones were prepared for protein expression and purification.
(§2) As a routine practice, the crude extracts and purified proteins were assayed for butanol oxidation activity, in order to ensure that the recombinant proteins were active throughout the purification process. […] Alcohol oxidation activities were carried out in 50 mM sodium phosphate buffer at pH 8.8 and aldehyde reduction reactions were assayed in 190 mM potassium phosphate buffer at pH 7.0. Depending on the nature of reaction being carried out, the enzyme and cofactor stocks were diluted in the reaction buffers at the respective pHs. Either buffer or cell extract prepared from the proprietary E. coli strain (with no ADH plasmid) was used as the negative control for assays with purified protein and cell-free extracts, respectively.
(§3) Kinetic constants of the ADH enzymes were calculated and compared to identify those candidate ADH enzymes with the most desirable properties for the conversion of isobutyraldehyde to isobutanol in the last step of the engineered pathway for isobutanol production. The assays for determining the kinetic constants were carried out using initial rates from the assays described above. […] The concentration of a given enzyme was such that it was conducive for the measurement of initial velocities over a 1-min time course. For each enzyme, Michaelis-Menten plots were generated with a broad range of substrate concentrations. Rough estimates of KM were obtained, based on which the assays were redesigned so as to use substrate concentrations in the range 0.5 to 10 times the KM value, to be able to obtain the appropriate kinetic constants. […] When calculating the KI for isobutanol, the same reactions were carried out in the presence of varying concentrations of isobutanol (generally 0-535 mM) in the reaction (see FIG. 7, for example). Reactions with isobutanol substrate were performed at 30° C. in 50 mM Sodium phosphate buffer, pH 8.8, containing 7.5 mM NAD. The Enzyme kinetics module (Version 1.3) of SigmaPlot 11 (Systat Software, Inc.) was used to fit data to Michaelis-Menten equations and calculate the kinetic constants. The kcat/KM is derived from the individual numbers of kcat and KM and not an experimentally determined value. The ratios of the KM, KI, and kcat/KM for each candidate enzyme as compared to the same parameter for SadB are given in Table 9.
(§4) Seven additional candidate ADH enzymes were synthesized, expressed, and assayed according to methods such as described in Example 2. Kinetic constants obtained for the indicated ADH enzymes (Phenylobacterium zucineum HLK1 ADH (PzADH), Methylocella silvestris BL2 ADH (MsADH), Acinetobacter baumannii AYE ADH (AbADH), Geobacillus sp. WCH70 ADH (GbADH), and Mucor circinelloides ADH (McADH)) are given in Table 8. A comparison of KM, KI, and kcat/KM for each candidate enzyme as compared to the same parameter for SadB are given in Table 9 as a percentage of the values determined (Table 7) for SadB. […]

[2] = biological target: Acinetobacter baumannii AYE ADH (AbADH), SEQ ID NO: 36
Text: as §1, §2, §3, §4

[3] = biological target: Mucor circinelloides ADH (McADH), SEQ ID NO: 39 (Mucor circinelloides, UniProt Q66UT6)
Text: as §1, §2, §3, §4

[4] = biological target: T2, Methylocella silvestris BL2 ADH (MsADH), SEQ ID NO: 35 (Methylocella silvestris, UniProt B8ELZ1)
T2 sequence (B8ELZ1 1-345): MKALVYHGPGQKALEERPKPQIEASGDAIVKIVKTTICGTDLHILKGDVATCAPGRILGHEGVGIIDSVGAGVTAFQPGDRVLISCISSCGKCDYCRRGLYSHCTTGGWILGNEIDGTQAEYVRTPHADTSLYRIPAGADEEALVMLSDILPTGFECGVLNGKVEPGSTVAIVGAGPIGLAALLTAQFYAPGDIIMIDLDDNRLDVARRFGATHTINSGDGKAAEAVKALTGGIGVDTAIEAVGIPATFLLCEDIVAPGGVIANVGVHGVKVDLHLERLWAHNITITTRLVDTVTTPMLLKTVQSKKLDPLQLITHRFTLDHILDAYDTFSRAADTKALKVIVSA
Text: as §1, §2, §3, §4

[5] = biological target: Achromobacter xylosoxidans SadB (SadB), SEQ ID NO: 26
Text: as §1, §2
Kinetic constants of the ADH enzymes were calculated and compared to identify those candidate ADH enzymes with the most desirable properties for the conversion of isobutyraldehyde to isobutanol in the last step of the engineered pathway for isobutanol production. The assays for determining the kinetic constants were carried out using initial rates from the assays described above. […] The concentration of a given enzyme was such that it was conducive for the measurement of initial velocities over a 1-min time course. For each enzyme, Michaelis-Menten plots were generated with a broad range of substrate concentrations. Rough estimates of KM were obtained, based on which the assays were redesigned so as to use substrate concentrations in the range 0.5 to 10 times the KM value, to be able to obtain the appropriate kinetic constants. […] Reactions with isobutanol substrate were performed at 30° C. in 50 mM Sodium phosphate buffer, pH 8.8, containing 7.5 mM NAD. The Enzyme kinetics module (Version 1.3) of SigmaPlot 11 (Systat Software, Inc.) was used to fit data to Michaelis-Menten equations and calculate the kinetic constants. The kcat/KM is derived from the individual numbers of kcat and KM and not an experimentally determined value.
For those enzymes marked with an asterisk in Table 7, at least 3 assays were performed with separate preparations of the enzyme. All other numbers are values from either one assay or are averages from 2 assays performed with the same enzyme sample.

T1 sequence (A0A6G9J337 entry or part of it): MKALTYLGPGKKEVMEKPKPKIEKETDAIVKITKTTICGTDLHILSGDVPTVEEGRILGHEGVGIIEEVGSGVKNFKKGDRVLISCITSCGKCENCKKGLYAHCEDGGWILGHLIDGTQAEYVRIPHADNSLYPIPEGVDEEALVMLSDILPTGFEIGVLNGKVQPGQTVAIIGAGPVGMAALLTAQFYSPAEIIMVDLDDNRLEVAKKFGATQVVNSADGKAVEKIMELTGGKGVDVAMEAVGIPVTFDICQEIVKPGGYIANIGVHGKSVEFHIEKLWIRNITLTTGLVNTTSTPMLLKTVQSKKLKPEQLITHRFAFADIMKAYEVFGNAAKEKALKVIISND
Chain of Mucor circinelloides ADH (McADH), SEQ ID NO: 39 (Q66UT6 entry or part of it): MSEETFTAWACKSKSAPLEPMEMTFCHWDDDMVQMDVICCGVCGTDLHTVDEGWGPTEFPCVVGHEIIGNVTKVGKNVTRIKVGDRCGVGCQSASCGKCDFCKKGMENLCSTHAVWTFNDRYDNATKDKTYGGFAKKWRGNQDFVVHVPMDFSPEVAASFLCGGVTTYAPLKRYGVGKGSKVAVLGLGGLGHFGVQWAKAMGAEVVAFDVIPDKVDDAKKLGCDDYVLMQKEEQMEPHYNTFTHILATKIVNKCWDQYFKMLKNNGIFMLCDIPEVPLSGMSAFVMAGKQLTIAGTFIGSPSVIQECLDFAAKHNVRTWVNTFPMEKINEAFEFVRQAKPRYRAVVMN

SMILES: CC(C)CO [isobutanol, 2-methylpropan-1-ol]
- Ki ([1]; isobutyraldehyde reduction, varying isobutanol, NADPH specific): 13 mM
- KI as a percentage of the same parameter for SadB ([1]; relative to SadB): 7%
- KI as a percentage of the same parameter for SadB ([2]; relative to SadB): 169%
- Ki ([3]; read-out: KI (Isobutanol)): 79 mM
- KI as a percentage of the same parameter for SadB ([3]; relative to SadB): 44%
- Ki ([4]; read-out: KI (Isobutanol)): 19 mM
- KI as a percentage of the same parameter for SadB ([4]; relative to SadB): 11%
- KI as a percentage of the same parameter for SadB ([5]; reference (SadB itself)): 100%

SMILES: CC(C)C=O [isobutyraldehyde]
- KM as a percentage of the same parameter for SadB ([1]; relative to SadB): 44%
- kcat as a percentage of the same parameter for SadB ([1]; relative to SadB): 29%
- kcat/KM as a percentage of the same parameter for SadB ([1]; relative to SadB): 69%
- Km ([2]; 30° C., pH 7.0, NADH specific, read-out: KM (Isobutanal)): 10 mM
- kcat ([2]; isobutyraldehyde reduction, 30° C., pH 7.0, NADH specific): 99 s⁻¹
- KM as a percentage of the same parameter for SadB ([2]; relative to SadB): 1020%
- kcat as a percentage of the same parameter for SadB ([2]; relative to SadB): 91%
- kcat/KM as a percentage of the same parameter for SadB ([2]; relative to SadB): 9%
- KM as a percentage of the same parameter for SadB ([3]; relative to SadB): 3000%
- kcat as a percentage of the same parameter for SadB ([3]; relative to SadB): 138%
- kcat/KM as a percentage of the same parameter for SadB ([3]; relative to SadB): 5%
- KM as a percentage of the same parameter for SadB ([4]; relative to SadB): 6%
- kcat as a percentage of the same parameter for SadB ([4]; relative to SadB): 30%
- kcat/KM as a percentage of the same parameter for SadB ([4]; relative to SadB): 532%
- Km ([5]; 30° C., pH 7.0, 200 μM NADH, read-out: KM (Isobutanal)): 1 mM
- kcat ([5]; isobutyraldehyde reduction, 30° C., pH 7.0, 200 μM NADH): 109 s⁻¹
- KM as a percentage of the same parameter for SadB ([5]; reference (SadB itself)): 100%
- kcat as a percentage of the same parameter for SadB ([5]; reference (SadB itself)): 100%
- kcat/KM as a percentage of the same parameter for SadB ([5]; reference (SadB itself)): 100%
